Test results reported in ChEMBL document CHEMBL1150863, “New triterpenoid saponins from the sponge Erylus nobilis” (2001).
In brackets after ≈: the same amount, converted by molar mass.

System: K562
Assay: Cytotoxicity against human K562 cells
Assay type: functional
Settings: read-out: LC50 (the source's name)

Q: For `C=C(CC[C@@H](C)[C@H]1CC[C@@]2(C(=O)O)C3=C(CC[C@]12C)[C@@]1(C)CCC(O[C@@H]2O[C@H](CO)[C@H](O)[C@H](O[C@@H]4OC[C@H](O)[C@H](O)[C@H]4O)[C@H]2O[C@@H]2O[C@H](CO)[C@@H](O)[C@H](O)[C@H]2NC(C)=O)C(C)(C)[C@@H]1CC3)C(C)C` (some centres undefined) [ERYLOSIDE G], which CC50 is on record?
A: The CC50 was 22.1 µg/mL (≈ 22.8 µM).

Q: Which CC50 does the source give for `C=C(CC[C@@H](C)[C@H]1CC[C@@]2(C(=O)O)C3=C(CC[C@]12C)[C@@]1(C)CCC(O[C@@H]2O[C@H](CO)[C@H](O)[C@H](O[C@@H]4OC[C@H](O)[C@H](O)[C@H]4O)[C@H]2O[C@@H]2O[C@H](CO)[C@@H](O)[C@H](O)[C@H]2NC(C)=O)C(C)(C)[C@@H]1CC3)C(C)(C)C` (some centres undefined) [ERYLOSIDE I] here?
A: The CC50 was 17.9 µg/mL (≈ 18.2 µM).

Q: With `C=C(CC[C@@H](C)[C@H]1CC[C@@]2(C(=O)O)C3=C(CC[C@]12C)[C@@]1(C)CCC(O[C@@H]2OC[C@H](O)[C@H](O[C@@H]4OC[C@H](O)[C@H](O)[C@H]4O)[C@H]2O[C@@H]2O[C@H](CO)[C@@H](O)[C@H](O)[C@H]2NC(C)=O)C(C)(C)[C@@H]1CC3)C(C)(C)C` (some centres undefined) [ERYLOSIDE J] as the compound, how does the CC50 read?
A: Its CC50 is 21.8 µg/mL (≈ 22.9 µM).

Q: With `C=C(CC[C@@H](C)[C@H]1CC[C@@]2(C(=O)O)C3=C(CC[C@]12C)[C@@]1(C)CCC(O[C@@H]2OC[C@H](O)[C@H](O[C@@H]4OC[C@H](O)[C@H](O)[C@H]4O)[C@H]2O[C@@H]2O[C@H](CO)[C@@H](O)[C@H](O)[C@H]2NC(C)=O)C(C)(C)[C@@H]1CC3)C(C)C` (some centres undefined) [ERYLOSIDE H] as the compound, how does the CC50 read?
A: The CC50 was 24.8 µg/mL (≈ 26.4 µM).
